{
  "source": "the supplement of paper PMC10307832",
  "assay_in_all_cases": "relative viability (nuclei count vs DMSO), 5 days (fraction); higher = more cells survive",
  "key": {"[1]": {"test_system": "A-427", "procedure,_shortened": "(§1)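 Lung cancer cell lines in 1536-well plates got either a single drug or a fixed anchor-drug dose together with five library-drug doses (not always all listed) in √10 steps, by pin tool, on the day after seeding. Nuclei were counted after 5 days, and relative viability is the treated-to-vehicle ratio of nuclei counts. Values are medians of duplicate plates.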"}, "[2]": {"test_system": "COR-L 105", "procedure,_shortened": "as §1"}, "[3]": {"test_system": "EKVX", "procedure,_shortened": "as §1"}, "[4]": {"test_system": "EMC-BAC-2", "procedure,_shortened": "as §1"}, "[5]": {"test_system": "H3255", "procedure,_shortened": "as §1"}, "[6]": {"test_system": "HCC-366", "procedure,_shortened": "as §1"}, "[7]": {"test_system": "LK-2", "procedure,_shortened": "as §1"}, "[8]": {"test_system": "LOU-NH91", "procedure,_shortened": "as §1"}, "[9]": {"test_system": "NCI-H1563", "procedure,_shortened": "as §1"}, "[10]": {"test_system": "NCI-H1666", "procedure,_shortened": "as §1"}, "[11]": {"test_system": "NCI-H1734", "procedure,_shortened": "as §1"}, "[12]": {"test_system": "NCI-H1755", "procedure,_shortened": "as §1"}, "[13]": {"test_system": "NCI-H1975", "procedure,_shortened": "as §1"}, "[14]": {"test_system": "NCI-H2170", "procedure,_shortened": "as §1"}, "[15]": {"test_system": "NCI-H23", "procedure,_shortened": "as §1"}, "[16]": {"test_system": "NCI-H520", "procedure,_shortened": "as §1"}, "[17]": {"test_system": "NCI-H596", "procedure,_shortened": "as §1"}, "[18]": {"test_system": "PC-3 [JPC-3]", "procedure,_shortened": "as §1"}, "[19]": {"test_system": "SK-MES-1", "procedure,_shortened": "as §1"}},
  "data": [
    {"smiles": "Nc1ccn([C@@H]2O[C@H](CO)[C@@H](O)[C@@H]2O)c(=O)n1", "note": "[Cytarabine] + CS(=O)(=O)CCNCc1ccc(-c2ccc3ncnc(Nc4ccc(OCc5cccc(F)c5)c(Cl)c4)c3c2)o1 [Lapatinib] (partner 2 µM)", "values": [
      {"measurement": "relative viability", "setting": "[1]; first compound 0.005 µM", "result": 0.93},
      {"measurement": "relative viability", "setting": "[1]; first compound 0.01581 µM", "result": 0.565},
      {"measurement": "relative viability", "setting": "[1]; first compound 0.05 µM", "result": 0.274},
      {"measurement": "relative viability", "setting": "[1]; first compound 0.1581 µM", "result": 0.184},
      {"measurement": "relative viability", "setting": "[1]; first compound 0.5 µM", "result": 0.183},
      {"measurement": "relative viability", "setting": "[2]; first compound 0.005 µM", "result": 0.299},
      {"measurement": "relative viability", "setting": "[2]; first compound 0.01581 µM", "result": 0.328},
      {"measurement": "relative viability", "setting": "[2]; first compound 0.05 µM", "result": 0.297},
      {"measurement": "relative viability", "setting": "[2]; first compound 0.1581 µM", "result": 0.293},
      {"measurement": "relative viability", "setting": "[2]; first compound 0.5 µM", "result": 0.252},
      {"measurement": "relative viability", "setting": "[3]; first compound 0.005 µM", "result": 0.225},
      {"measurement": "relative viability", "setting": "[3]; first compound 0.01581 µM", "result": 0.18},
      {"measurement": "relative viability", "setting": "[3]; first compound 0.05 µM", "result": 0.153},
      {"measurement": "relative viability", "setting": "[3]; first compound 0.1581 µM", "result": 0.138},
      {"measurement": "relative viability", "setting": "[3]; first compound 0.5 µM", "result": 0.112},
      {"measurement": "relative viability", "setting": "[4]; first compound 0.005 µM", "result": 0.857},
      {"measurement": "relative viability", "setting": "[4]; first compound 0.01581 µM", "result": 0.85},
      {"measurement": "relative viability", "setting": "[4]; first compound 0.05 µM", "result": 0.763},
      {"measurement": "relative viability", "setting": "[4]; first compound 0.1581 µM", "result": 0.283},
      {"measurement": "relative viability", "setting": "[4]; first compound 0.5 µM", "result": 0.287},
      {"measurement": "relative viability", "setting": "[5]; first compound 0.005 µM", "result": 0.268},
      {"measurement": "relative viability", "setting": "[5]; first compound 0.01581 µM", "result": 0.226},
      {"measurement": "relative viability", "setting": "[5]; first compound 0.05 µM", "result": 0.158},
      {"measurement": "relative viability", "setting": "[5]; first compound 0.1581 µM", "result": 0.197},
      {"measurement": "relative viability", "setting": "[5]; first compound 0.5 µM", "result": 0.188},
      {"measurement": "relative viability", "setting": "[6]; first compound 0.005 µM", "result": 1.16},
      {"measurement": "relative viability", "setting": "[6]; first compound 0.01581 µM", "result": 0.85},
      {"measurement": "relative viability", "setting": "[6]; first compound 0.05 µM", "result": 1.05},
      {"measurement": "relative viability", "setting": "[6]; first compound 0.1581 µM", "result": 0.0753},
      {"measurement": "relative viability", "setting": "[6]; first compound 0.5 µM", "result": 0.0431},
      {"measurement": "relative viability", "setting": "[7]; first compound 0.005 µM", "result": 0.627},
      {"measurement": "relative viability", "setting": "[7]; first compound 0.01581 µM", "result": 0.479},
      {"measurement": "relative viability", "setting": "[7]; first compound 0.05 µM", "result": 0.395},
      {"measurement": "relative viability", "setting": "[7]; first compound 0.1581 µM", "result": 0.248},
      {"measurement": "relative viability", "setting": "[7]; first compound 0.5 µM", "result": 0.283},
      {"measurement": "relative viability", "setting": "[8]; first compound 0.005 µM", "result": 0.735},
      {"measurement": "relative viability", "setting": "[8]; first compound 0.01581 µM", "result": 0.729},
      {"measurement": "relative viability", "setting": "[8]; first compound 0.05 µM", "result": 0.588},
      {"measurement": "relative viability", "setting": "[8]; first compound 0.1581 µM", "result": 0.669},
      {"measurement": "relative viability", "setting": "[8]; first compound 0.5 µM", "result": 0.554},
      {"measurement": "relative viability", "setting": "[9]; first compound 0.005 µM", "result": 0.935},
      {"measurement": "relative viability", "setting": "[9]; first compound 0.01581 µM", "result": 0.859},
      {"measurement": "relative viability", "setting": "[9]; first compound 0.05 µM", "result": 0.497},
      {"measurement": "relative viability", "setting": "[9]; first compound 0.1581 µM", "result": 0.926},
      {"measurement": "relative viability", "setting": "[9]; first compound 0.5 µM", "result": 0.708},
      {"measurement": "relative viability", "setting": "[10]; first compound 0.005 µM", "result": 0.455},
      {"measurement": "relative viability", "setting": "[10]; first compound 0.01581 µM", "result": 0.549},
      {"measurement": "relative viability", "setting": "[10]; first compound 0.05 µM", "result": 0.378},
      {"measurement": "relative viability", "setting": "[10]; first compound 0.1581 µM", "result": 0.308},
      {"measurement": "relative viability", "setting": "[10]; first compound 0.5 µM", "result": 0.262},
      {"measurement": "relative viability", "setting": "[11]; first compound 0.005 µM", "result": 0.628},
      {"measurement": "relative viability", "setting": "[11]; first compound 0.01581 µM", "result": 0.341},
      {"measurement": "relative viability", "setting": "[11]; first compound 0.05 µM", "result": 0.481},
      {"measurement": "relative viability", "setting": "[11]; first compound 0.1581 µM", "result": 0.151},
      {"measurement": "relative viability", "setting": "[11]; first compound 0.5 µM", "result": 0.134},
      {"measurement": "relative viability", "setting": "[12]; first compound 0.005 µM", "result": 0.759},
      {"measurement": "relative viability", "setting": "[12]; first compound 0.01581 µM", "result": 0.973},
      {"measurement": "relative viability", "setting": "[12]; first compound 0.05 µM", "result": 0.8},
      {"measurement": "relative viability", "setting": "[12]; first compound 0.1581 µM", "result": 0.259},
      {"measurement": "relative viability", "setting": "[12]; first compound 0.5 µM", "result": 0.271},
      {"measurement": "relative viability", "setting": "[13]; first compound 0.005 µM", "result": 0.644},
      {"measurement": "relative viability", "setting": "[13]; first compound 0.01581 µM", "result": 1.05},
      {"measurement": "relative viability", "setting": "[13]; first compound 0.05 µM", "result": 1.09},
      {"measurement": "relative viability", "setting": "[13]; first compound 0.1581 µM", "result": 0.456},
      {"measurement": "relative viability", "setting": "[13]; first compound 0.5 µM", "result": 0.372},
      {"measurement": "relative viability", "setting": "[14]; first compound 0.01581 µM", "result": 0.233},
      {"measurement": "relative viability", "setting": "[14]; first compound 0.05 µM", "result": 0.231},
      {"measurement": "relative viability", "setting": "[14]; first compound 0.1581 µM", "result": 0.19},
      {"measurement": "relative viability", "setting": "[14]; first compound 0.5 µM", "result": 0.182},
      {"measurement": "relative viability", "setting": "[15]; first compound 0.005 µM", "result": 0.974},
      {"measurement": "relative viability", "setting": "[15]; first compound 0.01581 µM", "result": 0.636},
      {"measurement": "relative viability", "setting": "[15]; first compound 0.05 µM", "result": 0.734},
      {"measurement": "relative viability", "setting": "[15]; first compound 0.1581 µM", "result": 0.203},
      {"measurement": "relative viability", "setting": "[15]; first compound 0.5 µM", "result": 0.165},
      {"measurement": "relative viability", "setting": "[16]; first compound 0.005 µM", "result": 0.557},
      {"measurement": "relative viability", "setting": "[16]; first compound 0.01581 µM", "result": 0.743},
      {"measurement": "relative viability", "setting": "[16]; first compound 0.05 µM", "result": 0.911},
      {"measurement": "relative viability", "setting": "[16]; first compound 0.1581 µM", "result": 0.552},
      {"measurement": "relative viability", "setting": "[16]; first compound 0.5 µM", "result": 0.47},
      {"measurement": "relative viability", "setting": "[17]; first compound 0.005 µM", "result": 1.03},
      {"measurement": "relative viability", "setting": "[17]; first compound 0.01581 µM", "result": 0.903},
      {"measurement": "relative viability", "setting": "[17]; first compound 0.05 µM", "result": 0.785},
      {"measurement": "relative viability", "setting": "[17]; first compound 0.1581 µM", "result": 0.746},
      {"measurement": "relative viability", "setting": "[17]; first compound 0.5 µM", "result": 0.609},
      {"measurement": "relative viability", "setting": "[18]; first compound 0.005 µM", "result": 0.435},
      {"measurement": "relative viability", "setting": "[18]; first compound 0.01581 µM", "result": 0.465},
      {"measurement": "relative viability", "setting": "[18]; first compound 0.05 µM", "result": 0.426},
      {"measurement": "relative viability", "setting": "[18]; first compound 0.1581 µM", "result": 0.396},
      {"measurement": "relative viability", "setting": "[18]; first compound 0.5 µM", "result": 0.389},
      {"measurement": "relative viability", "setting": "[19]; first compound 0.005 µM", "result": 0.416},
      {"measurement": "relative viability", "setting": "[19]; first compound 0.01581 µM", "result": 0.396},
      {"measurement": "relative viability", "setting": "[19]; first compound 0.05 µM", "result": 0.328},
      {"measurement": "relative viability", "setting": "[19]; first compound 0.1581 µM", "result": 0.228},
      {"measurement": "relative viability", "setting": "[19]; first compound 0.5 µM", "result": 0.196}
    ]}
  ]
}
